Results published in patent US8216973B2, “2-[(1H-pyrazole-4-ylmethyl)-sulfonyl]-oxazole-derivative, 2-[(1H-pyrazole-4-ylmethyl)-sulfanyl]-oxazole-derivatives, and chiral 2-[(1H-pyrazole-4-ymethyl)sulfinyl]oxazole derivatives, methods for the production thereof, and use thereof as herbicides and plant growth regulators” (Bayer Cropscience AG, priority 2008, dated 2012).

Assays:
[1] = test system: harmful plants such as Avena fatua, Stellaria media, Echinochloa crus galli, Lolium multiflorum, Setaria viridis, Amaranthus retroflexus, Veronica persica …; assay: Pre-emergence herbicidal effect, greenhouse pot test; assay type: in vivo, monocotyledonous or dicotyledonous weed plants; conditions: pre-emergence method, application rate of 0.32 kg and less of active substance per hectare, scored visually after about 3 weeks
From the text: 1. Pre-Emergence Herbicidal Effect and Crop Plant Compatibility
Seeds of monocotyledonous or dicotyledonous weed plants or crop plants are placed in sandy loam in wood-fiber pots and covered with soil. The compounds according to the invention, formulated in the form of wettable powders (WP), are then applied as aqueous suspension at a water application rate of 600 l/ha (converted) with the addition of 0.2% of wetting agent to the surface of the covering soil.
After the treatment, the pots are placed in a greenhouse and kept under good growth conditions for the test plants. After about 3 weeks, the effect of the preparations is scored visually in comparison with untreated controls (herbicidal effect in percent (%): 100% activity=the plants have died, 0% activity=like control plants).

[2] = test system: harmful plants such as Echinochloa crus galli, Lolium multiflorum, and Setaria viridis; assay: Post-emergence herbicidal effect, greenhouse pot test; assay type: in vivo, monocotyledonous and dicotyledonous weed plants; conditions: post-emergence method, application rate of 0.32 kg and less of active substance per hectare, rated visually after about 3 weeks
Experimental: 2. Post-Emergence Herbicidal Effect and Crop Plant Compatibility
Seeds of monocotyledonous and dicotyledonous weed and crop plants are placed in sandy loam in wood-fiber pots, covered with soil and cultivated in a greenhouse under good growth conditions. 2 to 3 weeks after sowing, the test plants are treated at the one-leaf stage. The compounds according to the invention, formulated in the form of wettable powders (WP), are then sprayed as aqueous suspension at a water application rate of 600 l/ha (converted) with the addition of 0.2% of wetting agent onto the green parts of the plants. After the test plants have been kept in the greenhouse under optimum growth conditions for about 3 weeks, the activity of the preparations is rated visually in comparison to untreated controls (herbicidal activity in percent (%): 100% activity=the plants have died, 0% activity=like control plants).

| Compound | herbicidal activity against harmful plants [1] | herbicidal activity against harmful plants [2] |
| --- | --- | --- |
| Cn1nc(C(F)(F)F)c(C[S+]([O-])c2ncco2)c1OC(F)F (racemic) [compound 50, 2-({[5-(Difluoromethoxy)-1-methyl-3-(trifluoromethyl)-1H-pyrazol-4-yl]methyl}sulfinyl)-1,3-oxazole] | very good herbicidal activity | very good herbicidal activity |
| Cn1nc(C(F)(F)F)c(C[S+]([O-])c2ncco2)c1Cl (centres unmarked) [Compound No. 35, 2-({[5-(Chloro)-1-methyl-3-(trifluoromethyl)-1H-pyrazol-4-yl]methyl}sulfinyl)-1,3-oxazole] | very good herbicidal activity | very good herbicidal activity |
| Cn1nc(C(F)(F)F)c(C[S+]([O-])c2ncco2)c1C(F)(F)F (centres unmarked) [Compound No. 230, 2-({[1-Methyl-3,5-bis(trifluoromethyl)-1H-pyrazol-4-yl]methyl}sulfinyl)-1,3-oxazole] | very good herbicidal activity | very good herbicidal activity |
| Cn1nc(C(F)(F)F)c(C[S+]([O-])c2ncc(Cl)o2)c1OC(F)F (centres unmarked) [Compound No. 542, 5-Chloro-2-({[5-(difluoromethoxy)-1-methyl-3-(trifluoromethyl)-1H-pyrazol-4-yl]methyl}sulfinyl)-1,3-oxazole] | very good herbicidal activity | very good herbicidal activity |
| Cn1nc(C(F)(F)F)c(C[S+]([O-])c2ncc(Br)o2)c1OC(F)F (centres unmarked) [Compound No. 788, 5-Bromo-2-({[5-(difluoromethoxy)-1-methyl-3-(trifluoromethyl)-1H-pyrazol-4-yl]methyl}sulfinyl)-1,3-oxazole] | very good herbicidal activity | – |
| Cn1nc(C(F)(F)F)c(CS(=O)(=O)c2ncc(Br)o2)c1OC(F)F [Compound No. 789, 5-Bromo-2-({[5-(difluoromethoxy)-1-methyl-3-(trifluoromethyl)-1H-pyrazol-4-yl]methyl}sulfonyl)-1,3-oxazole] | very good herbicidal activity | – |
| Cn1nc(C(F)(F)F)c(C[S+]([O-])c2ncc(I)o2)c1OC(F)F (centres unmarked) [Compound No. 1034, 5-Iodo-2-({[5-(difluoromethoxy)-1-methyl-3-(trifluoromethyl)-1H-pyrazol-4-yl]methyl}sulfinyl)-1,3-oxazole] | very good herbicidal activity | – |
| Cn1nc(C(F)(F)F)c(C[S@+]([O-])c2ncc(Cl)o2)c1OC(F)F [Compound No. 2449] | very good herbicidal activity | – |
| Cn1nc(C(F)(F)F)c(C[S@+]([O-])c2ncc(Br)o2)c1OC(F)F [Compound No. 2531] | very good herbicidal activity | – |
| Cn1nc(C(F)(F)F)c(CS(=O)(=O)c2ncco2)c1OC(F)F [compound 51, 2-({[5-(Difluoromethoxy)-1-methyl-3-(trifluoromethyl)-1H-pyrazol-4-yl]methyl}sulfonyl)-1,3-oxazole] | very good herbicidal activity | very good herbicidal activity |
| Cn1nc(C(F)(F)F)c(C[S@+]([O-])c2ncco2)c1OC(F)F [compound 2285, 2-[(S)-{[5-(Difluoromethoxy)-1-methyl-3-(trifluoromethyl)-1H-pyrazol-4-yl]methyl}sulfinyl]-1,3-oxazole] | very good herbicidal activity | very good herbicidal activity |
